# Reference: patent publication US12455279B2, “Personalized immunotherapy for rejuvenating activating and strengthening exhausted and dysfunctional T cells, reducing PD-1, and improving immune function” (priority 2018, dated 2025)
# “And” between values parts separate entries of the source, which are not always exact repeats. Equal values may be shown once. Where no end group is shown, it is not given here.
# B1: GnRH-II: neuropeptide (peptide, UniProt O43555 24-120, looked up)
# Progonadoliberin-2: QHWSHGWYPGGKRALSSAQDPQNALRPPGRALDTAAGSPVQTAHGLPSDALAPLDDSMPWEGRTTAQWSLHRKRHLARTLLTAAREPRPAPPSSNKV
# modifications: Progonadoliberin-2
# notes: neuropeptide
# Experiments:
# [1] = test system: PD-1 expressing CD3+ normal human T cells; test: PD-1 surface expression on CD3+ T cells of healthy donors after treatment (1, 18, 24 Hr); format: cell-based; settings: for % reduction in % of T cells expressing PD-1: vs untreated; for effect on PD-1 expressing T cells: incubated for 24 hours
# Protocol: (§1) Peripheral blood lymphocytes (PBLs) were separated from normal human leukocytes of healthy donors by Ficol separation and CD3 positive T cells were separated by anti-CD3 antibody-coupled magnetic beads. The CD3+ T cells were cultured in RPMI 1640 medium supplemented with 10% heat inactivated fetal calf serum (FCS), 1% L-Glutamine, 1% sodium pyruvate, 1% non-essential amino acids, and 1% antibiotics. The cells were usually maintained for, for on average 24 hours after their separation before various molecules were added and their effects on the T cells were measured. […] It was therefore tested if neurotransmitters, neuropeptides, and/or modulators of voltage-gated ion channels can reduce PD-1 on the cell surface of T cells. Such a reduction would allow the T cells to escape the tumor-induced T cell suppression, and the activated T cells could then attach the cancer cells. As such, the expression of PD-1 on the surface of these treated and untreated T cells was monitored. […] Shorter in vitro incubation times are frequently preferable when cells are going to subsequently be returned to a subject, as they end to decrease the risk of an adverse reaction.
# [2] = test system: PD-1 expressing large proliferating CD3+ normal human T cells; test: PD-1 expression on large proliferating T cells (FSC/SSC gating), 1 Hr treatment; format: cell-based; settings: for % reduction in % of large T cells expressing PD-1: vs untreated
# Protocol: as §1
# (§2) CD3 positive T cells of patients are a heterogenous mix of different types of T cells. […] Using this FCS and SSC analysis, T cells can be distinguished and separated by size into large proliferating T cells and smaller non-proliferating T cells.
# [3] = test system: PD-1 expressing smaller non-proliferating CD3+ normal human T cells; test: PD-1 expression on smaller non-proliferating T cells (FSC/SSC gating), 1 Hr treatment; format: cell-based; settings: for % reduction in % of smaller T cells expressing PD-1: vs untreated
# Protocol: as §1, §2
# [4] = test system: CD3+ T cells of liver cancer patients; test: Proliferation / big proliferating T cells / CD25 of CD3+ T cells of liver cancer patients; format: cell-based, human; set-up: % big/activated/proliferating T cells: concentration or dose not given beside the values; settings: for % big/activated/proliferating T cells / Fold increase (big/activated/proliferating T cells): T cells of liver cancer patient one; for % big/activated/proliferating T cells: 60 hours culture; for Fold increase (big/activated/proliferating T cells): vs untreated; for number of T cells present in culture (FIG. 1): 60 hours after administration
# Protocol: Blood was drawn from two patients suffering from liver cancer, patient one and patient two who both suffer from hepatocellular carcinoma. 15 mLs of blood yielded roughly 2.5×10^7 peripheral blood leucocytes, from which approximately […] positive T cells were isolated. The cells were cultured as described above, and the effects of various molecules and their combinations on those T cells were examined.
# Cell proliferation was monitored in culture for 60 hours after administration of the molecule/s (FIG. 1).
Molecule,"% of T cells expressing PD-1 ([1]; 1 Hr treatment, 10^−8M) [%]","% reduction in % of T cells expressing PD-1 ([1]; 1 Hr treatment, 10^−8M) [%]","% of T cells expressing PD-1 ([1]; 24 Hr treatment, 10^−7M) [%]","% reduction in % of T cells expressing PD-1 ([1]; 24 Hr treatment, 10^−7M) [%]","% of T cells expressing PD-1 ([1]; 24 Hr treatment, 10^−8M)","% reduction in % of T cells expressing PD-1 ([1]; 24 Hr treatment, 10^−8M) [%]","% of T cells expressing PD-1 ([1]; 18 Hr treatment, 10^−7M) [%]","% reduction in % of T cells expressing PD-1 ([1]; 18 Hr treatment, 10^−7M) [%]",% of large T cells expressing PD-1 ([2]; 10^−8M) [%],% reduction in % of large T cells expressing PD-1 ([2]; 10^−8M) [%],% of smaller T cells expressing PD-1 ([3]; 10−8M) [%],% reduction in % of smaller T cells expressing PD-1 ([3]; 10−8M) [%],further results
CCCN(CCC)C1CCc2ccc(O)cc2C1 (stereo not shown) [7-OH-DPAT],21.65,42,5.12,75.85,13.6%,35.85,–,–,–,–,–,–,–
"Oc1ccc(C2CNCCc3c2cc(O)c(O)c3Cl)cc1 (stereo not shown) [Fenoldopam - Corlopam, Fenoldopam]",–,–,–,–,–,–,27.87,19.74,–,–,–,–,–
"OC1(c2ccc(Cl)cc2)CCN(Cc2c[nH]c3ccccc23)CC1 [L-741,626]",–,–,–,–,–,–,–,–,–,–,–,–,% of large T cells expressing PD-1 ([2]; concentration not given): 19.0%; % reduction in % of large T cells expressing PD-1 ([2]; concentration not given): 11.6%; % of smaller T cells expressing PD-1 ([3]; concentration not given): 38.6%; % reduction in % of smaller T cells expressing PD-1 ([3]; concentration not given): 12.1%
CN1CCc2cc(Cl)c(O)cc2[C@H]2c3ccccc3CC[C@@H]21 [SCH 39166],–,–,–,–,–,–,–,–,–,–,–,–,% of large T cells expressing PD-1 ([2]; concentration not given): 19.8%; % reduction in % of large T cells expressing PD-1 ([2]; concentration not given): 7.9%; % of smaller T cells expressing PD-1 ([3]; concentration not given): 40.1%; % reduction in % of smaller T cells expressing PD-1 ([3]; concentration not given): 8.7%
O=C(NCCCCN1CCN(c2cccc(Cl)c2Cl)CC1)c1ccc2c(c1)Cc1ccccc1-2 [NGB 2904],–,–,–,–,–,–,–,–,–,–,–,–,% of large T cells expressing PD-1 ([2]; concentration not given): 22.5%; % reduction in % of large T cells expressing PD-1 ([2]; concentration not given): −4.7%; % of smaller T cells expressing PD-1 ([3]; concentration not given): 40.2%; % reduction in % of smaller T cells expressing PD-1 ([3]; concentration not given): 8.4%
Cc1cccc(NC(=O)CN2CCC(c3ccccn3)CC2)c1 [A412997],17.4,52,–,–,–,–,–,–,–,–,–,–,–
N#Cc1cc2[nH]c(=O)c(=O)[nH]c2cc1[N+](=O)[O-] [CNQX],–,–,–,–,–,–,–,–,–,–,–,–,"% of T cells expressing PD-1 ([1]; 24 Hr treatment, 0.5*10^-6M): 13.7%; % reduction in % of T cells expressing PD-1 ([1]; 24 Hr treatment, 0.5*10^-6M): 32.93%; % of T cells expressing PD-1 ([1]; 24 Hr treatment, 0.5*10^−5M): 12.9%; % reduction in % of T cells expressing PD-1 ([1]; 24 Hr treatment, 0.5*10^−5M): 36.84%"
"GnRH-I: neuropeptide (QHWSYGLRPG; ends and bridges not checked; UniProt P01148 24-33, looked up)",34.27,6,–,–,–,–,–,–,16.1,25.1,36.6,16.6,–
CN[C@@H]1Cc2cccc3[nH]c(=O)n(c23)C1 [Sumanirole],25.65,30,16.4,19.71,16%,21.66,26.15,24.64,13.6,36.7,36.2,17.5,–
Dendrotoxin K,34.6,25,16.2,20.69,16.2%,20.69,23.30,32.85,–,–,–,–,–
Cc1cccc(C(=O)NCN2CCN(c3ccccc3C#N)CC2)c1 [PD168077],15.1,59,5.3,74.05,–,–,24,30.84,15.6,27.4,40.3,8.2,"reduction of PD-1 surface expression level and of number of PD-1 expressing T cells ([1]; 1, 18 or 24 hours treatment): greatest reduction in mean percentage of PD-1 expressing T cells after 24 hours of treatment"
"Oc1ccc(C2CNCCc3c2cc(O)c(O)c3Cl)cc1 (stereo not shown) [Fenoldopam (powder), Fenoldopam]",–,–,21.3,−4.26,14.7%,28.05,25.75,25.79,–,–,–,–,effect on PD-1 expressing T cells [1]: did not have a positive effect
CCCN1CCO[C@@H]2c3cc(O)ccc3OC[C@H]21 [PD 128907],26.15,29,13.6,33.41,16.3% and 10.7%,47.61,27.25,21.47,16.1,25.1,38.4,12.5,–
"Cc1onc(O)c1CC(N)C(=O)O (stereo not shown) [AMPA, alph-amino-3-hydroxy-5-methyl-4-isoxazalepropinoic acid]",26.4,28,–,–,–,–,28.55,17.72,–,–,–,–,–
NC[C@@H]1O[C@H](C23CC4CC(CC(C4)C2)C3)Cc2c1ccc(O)c2O [A77636],27.25,25,12.7,37.84,14.7%,28.05,27.10,21.90,20.5,4.7,40.8,7.1,–
Neuropeptide Y: neuropeptide,–,–,–,–,–,–,–,–,–,–,–,–,% big/activated/proliferating T cells [4]: 16.40%; Fold increase (big/activated/proliferating T cells) [4]: 3.6-fold; number of T cells present in culture (FIG. 1) ([4]; patient one): increased the number of T cells present in culture
CGRP,–,–,–,–,–,–,–,–,16.5,23.3,35.9,18.2,% big/activated/proliferating T cells [4]: 19.20%; Fold increase (big/activated/proliferating T cells) [4]: 4.3-fold; number of T cells present in culture (FIG. 1) ([4]; patient one): increased the number of T cells present in culture
"Cc1c(C2CCN(CCc3ccccc3)CC2)noc1-c1ccc(Cl)cc1 [L-741,742]",–,–,–,–,–,–,–,–,–,–,–,–,% of large T cells expressing PD-1 ([2]; concentration not given): 19.3%; % reduction in % of large T cells expressing PD-1 ([2]; concentration not given): 10.2%; % of smaller T cells expressing PD-1 ([3]; concentration not given): 37.8%; % reduction in % of smaller T cells expressing PD-1 ([3]; concentration not given): 13.9%
Oc1cc2c(cc1O)C(c1ccccc1)CNCC2 (stereo not shown) [SKF38393],26.2,28,21.8,-6.73,20.3%,0.61,26.40,23.90,15.6,27.4,36.7,16.4,effect on PD-1 expressing T cells [1]: did not have a positive effect
"CN[C@H](CC(=O)O)C(=O)O [NMDA, N-methyl-D-aspartic acid]",30.35,17,–,–,–,–,24.75,28.67,–,–,–,–,–
B1,31.6,14,–,–,–,–,–,–,9.5,55.8,–,–,"surface expression of CD25 (FIG. 2D) ([4]; T cells of patient one): increased the surface expression of CD25; number of T cells present in culture (FIG. 1) ([4]; patient one): increased the number of T cells present in culture; increase in the number of big, proliferating CD3 positive cells (ranking in words) ([4]; patient one, flow cytometer): most effective"
